Converted amounts (≈) assume the structure as drawn.
Key:
E. feacalis = assay: Minimum inhibitory concentration (MIC) in vitro, agar dilution method; type: cell-based
Description: (§1) Hydrates Samples: • The 1/2 hydrates prepared according to Example 2; • Content (purity % wt): 99.0%; • The 1/12 hydrates prepared according to Example 253; • Content (purity % wt): 98.9%; • The 2/7 hydrates prepared according to Example 106; • Content (purity % wt): 98.8%; • The 2/5 hydrates prepared according to Example 162; • Content (purity % wt): 99.0%; • The 3/4 hydrates prepared according to Example 337; • Content (purity % wt): 98.8%; • Preparation: dissolved in DMSO, and further diluted with sterile distilled water to desired concentration. • The hydrates samples were supplied by Sichuan Beilike Biotechnology LTD.
(§2) Anhydrous Sample: • The anhydrous compounds prepared according to Example 1. • Content (purity % wt): 98.6%; • Preparation: dissolved in DMSO, and further diluted with sterile distilled water to desired concentration; • The anhydrous sample was supplied by Sichuan Beilike Biotechnology LTD.
(§3) Control Samples • Vancomycin: provided by Sichuan Beilike Biotechnology LTD, purchased from Eli Lilly Japan K.K. • Lot No.: WM16151 (production date: Apr. 10, 2007, expiration date: Apr. 9, 2009). • Specification: 500 mg/bottle; solubility (physicochemical properties): soluble in water. • Linezolid (LZ): provided by Sichuan Beilike Biotechnology LTD.
(§4) Bacteria Strains • Clinically isolated strains: clinically isolated bacterial pathogens collected in Sichuan and Beijing areas from March 2007 to May 2008. • Species include: Staphylococcus aureus MRSA, Staphylococcus aureus MSSA, S. epidermidis MRSE, S. epidermidis MSSE, E. feacalis, and E. feacium, a total of 51 strains. • Quality control strains: Staphylococcus aureus […] strain kept in Sichuan Industrial Institute of Antibiotics, purchased from the medical testing center of the Ministry of Health, China.
(§5) Experimental Method: • Measurement of the minimum inhibitory concentration (MIC) in vitro: • The minimum inhibitory concentration (MIC) of each test sample against test strains was measured by using the agar dilution method recommended by the U.S. National Committee for Clinical Laboratory Standards (CLSI/NCCIs).
(§6) Based on the CLSI/NCCL's testing standard with respect to vancomycin and linezolid (see Table 6), the minimum inhibitory concentration (MIC) values of every strain were reported, and the MIC50 (the concentration that inhibits 50% of the different strains of bacteria), MIC90 (the concentration that inhibits 90% of the different strains of bacteria), and MICrange (the range of the MIC value of the tested strains) were observed.

E. feacium = assay: as above; type: cell-based
Description: as §1, §2, §3, §4, §5, §6

S. epidermidis MRSE = assay: as above; type: cell-based
Description: as §1, §2, §3, §4, §5, §6

S. epidermidis MSSE = assay: as above; type: cell-based
Description: as §1, §2, §3, §4, §5, §6

[1] = test system: Staphylococcus aureus MRSA; assay: as above; type: cell-based; conditions: S. MRSA (10 strains), clinically isolated
Description: as §1, §2, §3, §4, §5, §6

[2] = test system: Staphylococcus aureus MSSA; assay: as above; type: cell-based; conditions: S. MSSA (11 strains), clinically isolated
Description: as §1, §2, §3, §4, §5, §6

[3] = Solubility in different solvents according to Chinese Pharmacopeia (2005 edition); type: physicochemical; conditions: at the given solute:solvent ratio
Method: The solubility of the (S)—[N-3-(3′-fluoro-4′-(4″-phenylpiperazinyl))phenyl-2-oxo-5-oxazolelidinyl]methylacetamide hydrates was tested with different solvents, and the test results are shown in Tables 15-19. The solubility was measured according to Chinese Pharmacopeia (2005 edition).

[4] = E. feacalis (5 strains), clinically isolated
[5] = E. feacium (5 strains), clinically isolated
[6] = S. ep MRSE (10 strains), clinically isolated
[7] = S. ep MSSE (10 strains), clinically isolated

CC(=O)NC[C@H]1CN(c2ccc(N3CCN(c4ccccc4)CC3)c(F)c2)C(=O)O1 [Anhydrous compound]
MIC50 (E. feacalis; [4]): 4 µg/mL (≈ 9.7 µM) | MIC90 (E. feacalis; [4]): 8 µg/mL (≈ 19.4 µM) | MICrange (E. feacalis; [4]): 2 to 8 µg/mL | MIC (E. feacalis; strain Efa 54 (Table 8 No. 20)): 4 µg/mL (≈ 9.7 µM) | MIC (E. feacalis; strain Efa 116 (Table 8 No. 16)): 4 µg/mL (≈ 9.7 µM) | MIC (E. feacalis; strain Efa 907 (Table 8 No. 19)): 2 µg/mL (≈ 4.85 µM) | MIC (E. feacalis; strain Efa 3006 (Table 8 No. 18)): 4 µg/mL (≈ 9.7 µM) | MIC (E. feacalis; strain Efa 33748 (Table 8 No. 17)): 8 µg/mL (≈ 19.4 µM) | MIC50 (E. feacium; [5]): 4 µg/mL (≈ 9.7 µM) | MIC90 (E. feacium; [5]): 8 µg/mL (≈ 19.4 µM) | MICrange (E. feacium; [5]): 2 to 8 µg/mL | MIC (E. feacium; strain Efm 98 (Table 8 No. 21)): 4 µg/mL (≈ 9.7 µM) | MIC (E. feacium; strain Efm 171 (Table 8 No. 25)): 4 µg/mL (≈ 9.7 µM) | MIC (E. feacium; strain Efm 197 (Table 8 No. 22)): 2 µg/mL (≈ 4.85 µM) | MIC (E. feacium; strain Efm N3 (Table 8 No. 23)): 8 µg/mL (≈ 19.4 µM) | MIC (E. feacium; strain Efm N4 (Table 8 No. 24)): 8 µg/mL (≈ 19.4 µM) | MIC50 (S. epidermidis MRSE; [6]): 2 µg/mL (≈ 4.85 µM) | MIC90 (S. epidermidis MRSE; [6]): 2 µg/mL (≈ 4.85 µM) | MICrange (S. epidermidis MRSE; [6]): 2 µg/mL | MIC (S. epidermidis MRSE; strain S. ep MRSE4 (Table 8 No. 9)): 2 µg/mL (≈ 4.85 µM) | MIC (S. epidermidis MRSE; strain S. ep MRSE20 (Table 8 No. 6)): 2 µg/mL (≈ 4.85 µM) | MIC (S. epidermidis MRSE; strain S. ep MRSE87 (Table 8 No. 13)): 2 µg/mL (≈ 4.85 µM) | MIC (S. epidermidis MRSE; strain S. ep MRSE90 (Table 8 No. 10)): 2 µg/mL (≈ 4.85 µM) | MIC (S. epidermidis MRSE; strain S. ep MRSE101 (Table 8 No. 7)): 2 µg/mL (≈ 4.85 µM) | MIC (S. epidermidis MRSE; strain S. ep MRSE105 (Table 8 No. 11)): 2 µg/mL (≈ 4.85 µM) | MIC (S. epidermidis MRSE; strain S. ep MRSE140 (Table 8 No. 14)): 2 µg/mL (≈ 4.85 µM) | MIC (S. epidermidis MRSE; strain S. ep MRSE142 (Table 8 No. 12)): 2 µg/mL (≈ 4.85 µM) | MIC (S. epidermidis MRSE; strain S. ep MRSE210 (Table 8 No. 15)): 2 µg/mL (≈ 4.85 µM) | MIC (S. epidermidis MRSE; strain S. ep MRSE211 (Table 8 No. 8)): 2 µg/mL (≈ 4.85 µM) | MIC50 (S. epidermidis MSSE; [7]): 1 µg/mL (≈ 2.42 µM) | MIC90 (S. epidermidis MSSE; [7]): 2 µg/mL (≈ 4.85 µM) | MICrange (S. epidermidis MSSE; [7]): 1 to 2 µg/mL | MIC (S. epidermidis MSSE; strain S. ep MSSE88 (Table 8 No. 5)): 2 µg/mL (≈ 4.85 µM) | MIC (S. epidermidis MSSE; strain S. ep MSSE118 (Table 8 No. 2)): 1 µg/mL (≈ 2.42 µM) | MIC (S. epidermidis MSSE; strain S. ep MSSE137 (Table 8 No. 4)): 2 µg/mL (≈ 4.85 µM) | MIC (S. epidermidis MSSE; strain S. ep MSSE140 (Table 8 No. 3)): 1 µg/mL (≈ 2.42 µM) | MIC (S. epidermidis MSSE; strain S. ep MSSE153 (Table 8 No. 1)): 2 µg/mL (≈ 4.85 µM) | MIC50 [1]: 2 µg/mL (≈ 4.85 µM) | MIC90 [1]: 2 µg/mL (≈ 4.85 µM) | MICrange [1]: 1 to 2 µg/mL | MIC50 [2]: 2 µg/mL (≈ 4.85 µM) | MIC90 [2]: 2 µg/mL (≈ 4.85 µM) | MICrange [2]: 1 to 2 µg/mL

CC(=O)NC[C@H]1CN(c2ccc(N3CCN(c4ccccc4)CC3)c(F)c2)C(=O)O1 [Example 1, (S)—[N-3-(3′-fluoro-4′-(4″-phenylpiperazinyl))phenyl-2-oxo-5-oxazolidinyl]methyl acetamide]
Result ([3]; solvent 0.1N Hydrochloric acid): Dissolved | Result ([3]; solvent 0.1N Sodium hydroxide): Insoluble | Result ([3]; solvent Acetonitrile): Dissolved | Result ([3]; solvent Ethanol): Dissolved | Result ([3]; solvent Methanol): Dissolved | Result ([3]; solvent Water, listed as Anhydride): Insoluble

— patent publication US8916567B2, “Certain crystalline hydrates, pharmaceutical compositions thereof and methods for preparation and use thereof” (Universal Technology Alliance, Inc., priority 2009, dated 2014)
